This note sets out measurements from patent US20250230147A1, “LACTAMS AS CBL-B INHIBITORS” (Genentech, Inc., priority 2021, published 2025).

Where a name gives a salt, the structure may show the parent alone.

One experiment addresses Cbl-b (Homo sapiens (Human), UniProt Q13191). The experiment can be described thus: Cbl-b LCK Ub TR-FRET assay (Cbl-b Lck HTRF). It counts as biochemical. How it is done:
Compounds were 3-fold serially diluted in DMSO in a 384-well polypropylene plate (#P-05525-BC; Labcyte) to generate a source plate with 10 concentrations of each compound, top concentration=2 mM. 80 nL of DMSO or compounds were transferred to each well of a black 384-well ProxiPlate (#6008260; PerkinElmer) using a Labcyte Echo. 1×assay buffer (50 mM HEPES pH7.0, 100 mM NaCl, 0.01% BSA, 0.01% Triton-X100, 1 mM DTT), 2×enzyme solution (16 nM Biotin-Cbl-b or 12 nM Biotin-c-Cbl in 1× assay buffer), 2×kinase mixture (120 nM His-LCK, 1 mM ATP, 10 mM MgCl2 in assay buffer) and 2.33×detection mixture (4.66×solution 1: 163 nM Anti-HA-D2 antibody (#610HADAB; PerkinElmer), 27.96 nM Streptavidin-EU (#AD0062; PerkinElmer), 1.398 mM EDTA in 1×assay buffer+4.66×solution 2: 2.796 μM UBE2D2/Methylated-HA-Ubiquitin thioester adduct (BostonBiochem) in 1×assay buffer) were prepared. 4 μL of 2× enzyme solution was added to each well containing compound, briefly centrifuged to mix, and incubated for 60 min at room temperature. 4 μL of 2× kinase mixture was added, briefly centrifuged to mix, and incubated for 90 min. at room temperature. 6 μL of detection mixture was added to all wells and briefly centrifuged before incubating for 20 min at room temperature. Plates were read for TR-FRET using an Envision at excitation 340 nm, emission at 615 and 665 nm, 4 flashes per well. IC50 was generated using no LCK as the low control and DMSO as the high control.
Cbl-b Lck HTRF data in Table 7 is measured according to Example 76 herein; C-cbl Lck HTRF data is measured according to Example 76 herein.

For a further experiment, the target named is c-Cbl (Homo sapiens (Human), UniProt P22681). The experiment can be described thus: C-Cbl LCK Ub TR-FRET assay (c-cbl Lck HTRF). It counts as biochemical. To be noted: for (fold-selectivity): C-cbl Lck HTRF IC50 relative to Cbl-b Lck HTRF IC50. How it is done: 6 μL of detection mixture was added to all wells and briefly centrifuged before incubating for 20 min at room temperature. […] IC50 was generated using no LCK as the low control and DMSO as the high control.
Sequence of c-Cbl (P22681 47-435): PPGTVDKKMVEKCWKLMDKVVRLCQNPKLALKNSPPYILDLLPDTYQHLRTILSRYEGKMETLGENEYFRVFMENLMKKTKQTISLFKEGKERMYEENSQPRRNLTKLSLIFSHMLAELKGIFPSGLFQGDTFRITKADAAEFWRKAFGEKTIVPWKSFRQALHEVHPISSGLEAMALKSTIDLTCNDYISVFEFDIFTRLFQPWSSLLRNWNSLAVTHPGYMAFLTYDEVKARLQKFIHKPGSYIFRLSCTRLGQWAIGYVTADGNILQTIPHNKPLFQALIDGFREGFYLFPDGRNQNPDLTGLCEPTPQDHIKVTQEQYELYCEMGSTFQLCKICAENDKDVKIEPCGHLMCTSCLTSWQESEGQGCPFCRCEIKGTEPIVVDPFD

Sequence of Cbl-b (Q13191 40-426): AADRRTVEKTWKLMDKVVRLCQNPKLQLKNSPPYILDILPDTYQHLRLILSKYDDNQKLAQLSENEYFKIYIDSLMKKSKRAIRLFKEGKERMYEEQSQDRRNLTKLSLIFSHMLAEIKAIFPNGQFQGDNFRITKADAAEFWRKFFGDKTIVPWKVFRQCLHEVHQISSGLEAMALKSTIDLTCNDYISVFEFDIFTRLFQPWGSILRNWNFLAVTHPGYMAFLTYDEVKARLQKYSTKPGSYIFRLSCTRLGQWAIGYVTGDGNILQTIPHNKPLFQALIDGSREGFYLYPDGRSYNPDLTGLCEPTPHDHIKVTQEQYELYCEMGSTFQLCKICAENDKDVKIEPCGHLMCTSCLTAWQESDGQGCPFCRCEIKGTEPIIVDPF

For `Cn1cnnc1C(F)(F)C1(c2cccc(N3Cc4c(cc(CN5CC(C)(O)C5)cc4C(F)(F)F)C3=O)c2)CC(F)(F)C1` [Compound 383, 2-(3-(1-(difluoro(4-methyl-4H-1,2,4-triazol-3-yl)methyl)-3,3-difluorocyclobutyl)phenyl)-6-((3-hydroxy-3-methylazetidin-1-yl)methyl)-4-(trifluoromethyl)isoindolin-1-one], the IC50 at Cbl-b worked out at 490 nM. For the same molecule, on c-Cbl, 380 nM corresponded to half-maximal inhibition (IC50) and the “(fold-selectivity)” value is given as “(0.77x)”.
`CC1CN(Cc2cc3c(c(C(F)(F)F)c2)CN(c2cccc(C4([C@H](F)c5nncn5C)COC4)c2)C3=O)CCCO1` (stereo partly drawn) [Compound 120, 2-(3-(3-((S)-fluoro(4-methyl-4H-1,2,4-triazol-3-yl)methyl)oxetan-3-yl)phenyl)-6-((2-methyl-1,4-oxazepan-4-yl)methyl)-4-(trifluoromethyl)isoindolin-1-one] showed an IC50 on Cbl-b of 36 nM. Moreover, at c-Cbl, it took 44 nM to reach half-maximal inhibition (IC50) and the “(fold-selectivity)” value is on record as 1.2x.
For `CC(C)NCc1cc2c(c(C(F)(F)F)c1)CN(c1cccc(C3([C@@H](F)c4nncn4C)COC3)c1)C2=O` [Compound 226, (R)-2-(3-(3-(fluoro(4-methyl-4H-1,2,4-triazol-3-yl)methyl)oxetan-3-yl)phenyl)-6-((isopropylamino)methyl)-4-(trifluoromethyl)isoindolin-1-one formate], the IC50 against Cbl-b turned out to be 29 nM; against c-Cbl, 33 nM.
Consider `CC(C)Cc1cc(C2(Cc3nncn3C)CCC2)cc(N2Cc3c(cc(CNC4(C)CCC4)cc3C(F)(F)F)C2=O)n1` [Compound 342, 2-(6-isobutyl-4-(1-((4-methyl-4H-1,2,4-triazol-3-yl)methyl)cyclobutyl)pyridin-2-yl)-6-(((1-methylcyclobutyl)amino)methyl)-4-(trifluoromethyl)isoindolin-1-one formate], for which the half-inhibitory concentration (IC50) at Cbl-b came out at 11 nM; against c-Cbl, 7.9 nM.
Regarding `CC(C)[C@H]1CN(C)CCN1Cc1cc2c(c(C(F)(F)F)c1)CN(c1cccc(C3([C@H](F)c4nncn4C)COC3)c1)C2=O` [Compound 188, 2-(3-(3-((S)-fluoro(4-methyl-4H-1,2,4-triazol-3-yl)methyl)oxetan-3-yl)phenyl)-6-(((S)-2-isopropyl-4-methylpiperazin-1-yl)methyl)-4-(trifluoromethyl)isoindolin-1-one], the IC50 against Cbl-b was found to be 13 nM; at c-Cbl it was 25 nM. Also, on c-Cbl, the “(fold-selectivity)” value was determined as 2.0x.
For the molecule `Cn1cnnc1[C@H](F)[C@@](C)(F)c1cccc(N2Cc3c(cc(CN4CCC5(CC5)C4)cc3C(F)(F)F)C2=O)c1` [Compound 128, 6-(5-azaspiro[2.4]heptan-5-ylmethyl)-2-(3-((1S,2S)-1,2-difluoro-1-(4-methyl-4H-1,2,4-triazol-3-yl)propan-2-yl)phenyl)-4-(trifluoromethyl)isoindolin-1-one], the “(fold-selectivity)” value at c-Cbl is recorded as 3.4x.
Same read-out and setting: under `Cn1cnnc1[C@H](F)C1(c2cccc(N3Cc4c(Cl)cc(CNC5(C)CCC5)cc4C3=O)c2)COC1` [Compound 470, (R)-4-chloro-2-(3-(3-(fluoro(4-methyl-4H-1,2,4-triazol-3-yl)methyl)oxetan-3-yl)phenyl)-6-(((1-methylcyclobutyl)amino)methyl) isoindolin-1-one] stands “(0.70x)”; under `Cn1cnnc1[C@@H](F)[C@](C)(F)c1cccc(N2Cc3c(cc(CN4CCC5(CC5)C4)cc3C(F)(F)F)C2=O)c1` [Compound 129, 6-(5-azaspiro[2.4]heptan-5-ylmethyl)-2-(3-((1R,2R)-1,2-difluoro-1-(4-methyl-4H-1,2,4-triazol-3-yl)propan-2-yl)phenyl)-4-(trifluoromethyl)isoindolin-1-one], 3.6x.
Turning to `Cn1cnnc1[C@@H](F)[C@@](C)(F)c1cccc(N2Cc3c(cc(CN4CCC5(CC5)C4)cc3C(F)(F)F)C2=O)c1` [Compound 130, 6-(5-azaspiro[2.4]heptan-5-ylmethyl)-2-(3-((1R,2S)-1,2-difluoro-1-(4-methyl-4H-1,2,4-triazol-3-yl)propan-2-yl)phenyl)-4-(trifluoromethyl)isoindolin-1-one], the “(fold-selectivity)” value at c-Cbl was 3.3x.
